Key:
[1] = tested on: human acute myeloid leukemia cell line HL60; test: In vivo drug efficacy test in cancer-bearing mouse model with subcutaneous transplantation of HL60; details: NOD/scid mice, oral 10 to 30 mg/kg once daily for 10 days
Description: (Drug Efficacy Test in Cancer-Bearing Mouse Model with Subcutaneous Transplantation of HL60)
The human acute myeloid leukemia cell line HL60 (available from JCRB) was suspended in a mixture of RPMI-1640 medium and Matrigel (available from Corning Inc.), and then subcutaneously transplanted into 6-week-old female NOD/scid mice (available from CLEA Japan, Inc.). After confirming that the average tumor volume exceeded 200 mm^3, the test compound was dissolved in a solvent (1 equivalent sodium hydroxide solution) and orally administered to mice at a dose of 10 to 30 mg/kg once daily for 10 days. As a negative control, a solvent-administered group to which a 10 to 12 mmol/L sodium hydroxide solution was administered was provided. The tumor diameter was measured over time and the tumor volume was calculated. The tumor volume was calculated by measuring the major axis and the minor axis of the tumor and using the following expression. Tumor volume (mm^3)=[major axis (mm)×minor axis (mm)×minor axis (mm)]/2
T/C (%) was calculated from the average tumor volume of each group by the following expression, and the drug efficacy was evaluated. T/C (%)=(average tumor volume of drug-administered group)/(average tumor volume of solvent-administered group)×100%

recombinant human DHODH = molecular target: T1, recombinant human DHODH (Homo sapiens, UniProt Q02127); test: Enzyme reaction inhibition test (DHODH enzyme assay, DCIP quenching); format: biochemical; details: DCIP absorbance 600 nm, 50 minutes, read-out: Enzyme reaction inhibitory effect (IC50)
T1 construct: DHODH, 31-395 aa, Human, His tag, E. coli, ATGP1615; His tag; purchased ATGen Co. Ltd. ATGP1615; host or cells: E. coli
Description: The DHODH enzyme assay was carried out with reference to “Benjamin Bader, Wolfgang Knecht, Markus Fries, and Monika Loffler. Expression, Purification, and Characterization of Histidine-Tagged Rat and Human Flavoenzyme Dihydroorotate Dehydrogenase. Protein Expression and Purification, 1998, 13, 414-422.”
The DHODH activity was evaluated using an enzyme assay system that is coupled with an assay in which a blue coloring agent 2,6-dichlorophenol indophenol (DCIP, available from MP Biomedicals, LLC, MP150118) is quenched. Purified recombinant human DHODH (DHODH, 31-395 aa, Human, His tag, E. coli, ATGP1615) was purchased from ATGen Co. Ltd. The enzyme assay was carried out in a 384-well plate using a buffer solution containing 100 mmol/L Hepes (available from Dojindo Laboratories, 342-01375), 400 mmol/L NaCl (available from FUJIFILM Wako Pure Chemical Corporation, 191-01665), 10% Glycerol (available from FUJIFILM Wako Pure Chemical Corporation, 075-00616), 0.05% Triton X-100 (available from Sigma-Aldrich Co., LLC, T8787-100ML), 0.2 mmol/L Ubiquinone-10 (available from FUJIFILM Wako Pure Chemical Corporation, 216-00761), 0.1 mmol/L DHO (L-dihydroorotic acid, available from Sigma-Aldrich Co., LLC, D7128), 0.5% DMSO (dimethylsulfoxide, available from FUJIFILM Wako Pure Chemical Corporation, 047-29353), 0.175 μg/mL DHODH, and 0.12 mmol/L DCIP and having a pH adjusted to 8.0 by adding 5 mol/L potassium hydroxide (available from FUJIFILM Wako Pure Chemical Corporation, 168-21815). A test compound with a predetermined concentration was added using Biomek NX (available from Beckman Coulter Inc.), and the enzymatic reaction was started by adding the substrate. The enzyme activity was assessed by measuring the decrease in DCIP absorbance (600 nm) for 50 minutes using an EnVision plate-reading spectrophotometer (available from PerkinElmer, Inc.).
The enzyme reaction inhibition rate at each test compound concentration was determined, and the 50% enzyme reaction inhibition concentration [IC50 (nmol/L)] was calculated using XLfit. Enzyme reaction inhibition rate (%)=(amount of luminescence in test compound-added well)/(amount of luminescence in DMSO-added well)×100
The abbreviations in the table have the following meanings. • A: IC50 value<10 nmol/L • B: 10 nmol/L≤IC50 value<100 nmol/L • C: 100 nmol/L≤IC50 value

[2] = tested on: human myeloid leukemia cell line HL60; test: Cell growth test (Cell Titer Glo); format: cell-based; details: HL-60, 72 h, HL60 cells, 3 days, read-out: Cell growth inhibitory effect (GI50)
Description: The cell growth test was carried out using the human myeloid leukemia cell line HL60 (available from ATCC, CRL-240). As a culture medium of HL60 cells, RPMI 1640 (available from FUJIFILM Wako Pure Chemical Corporation, 189-02025) supplemented with 10% fetal bovine serum (available from Thermo Fisher Scientific, Inc., 10437-028), and 1% penicillin-streptomycin (10,000 U/mL, available from Thermo Fisher Scientific, Inc., 15140-122) was used. HL60 cells were seeded on a 384-well plate (available from Corning Inc., 4588) at a cell density of 1×10^3 cells/20 μL/well. After culturing overnight, 5 μL of the test compound having a predetermined concentration was added, and 3 days later, 25 μL of Cell Titer Glo (registered trademark) Luminescent Cell Viability Assay (available from Promega Corporation, G7573) was added, and then the amount of luminescence was measured using an EnVision plate reader (available from PerkinElmer, Inc.). Since the amount of luminescence is proportional to the intracellular concentration of adenosine triphosphate (ATP), the amount of luminescence was used as an indicator of the number of viable cells. The growth inhibitory concentration for each test compound concentration was calculated by the following expression.
The growth inhibition rate at each test compound concentration was determined, and the 50% growth inhibitory concentration [GI50 (nmol/L)] was calculated using XLfit. Growth inhibition rate (%)=(amount of luminescence in test compound-added well)/(amount of luminescence in DMSO-added well)×100
The abbreviations in the table have the following meanings. • A: GI50 value<100 nmol/L • B: 100 nmol/L≤GI50 value<1,000 nmol/L • C: 1,000 nmol/L≤GI50 value

T1 sequence (Q02127 31-395): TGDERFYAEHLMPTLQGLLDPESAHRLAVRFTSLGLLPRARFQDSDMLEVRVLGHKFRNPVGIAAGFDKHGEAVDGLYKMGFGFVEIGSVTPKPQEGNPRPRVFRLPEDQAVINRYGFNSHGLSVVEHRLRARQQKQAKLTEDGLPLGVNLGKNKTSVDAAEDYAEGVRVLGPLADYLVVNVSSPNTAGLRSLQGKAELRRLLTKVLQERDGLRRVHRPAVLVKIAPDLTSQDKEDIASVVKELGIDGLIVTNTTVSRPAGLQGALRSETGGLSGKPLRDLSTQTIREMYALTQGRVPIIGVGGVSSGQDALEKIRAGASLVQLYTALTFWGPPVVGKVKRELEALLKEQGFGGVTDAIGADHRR

SMILES | tumor growth inhibition rate (T/C) [1] | IC50 (recombinant human DHODH) | GI50 [2]
C[C@H](Oc1c(Nc2ncc(C3CC3)nc2C(=O)O)cccc1C1CCOCC1)C(F)(F)F [Example 10, (S)-6-cyclopropyl-3-((3-(tetrahydro-2H-pyran-4-yl)-2-((1,1,1-trifluoropropan-2-yl)oxy)phenyl)amino)pyrazine-2-carboxylic acid] | excellent tumor growth inhibition rate | < 10 nM | < 100 nM
CCCc1c(Nc2ncc(C3CC3)nc2C(=O)O)cccc1C1CCOCC1 [Example 13, 6-cyclopropyl-3-((2-propyl-3-(tetrahydro-2H-pyran-4-yl)phenyl)amino)pyrazine-2-carboxylic acid] | excellent tumor growth inhibition rate | 10 to 100 nM | < 100 nM
O=C(O)c1nc(C2CC2)cnc1Nc1cccc(C2CCOCC2)c1OCC(F)(F)F [Example 4, 6-cyclopropyl-3-((3-(tetrahydro-2H-pyran-4-yl)-2-(2,2,2-trifluoroethoxy)phenyl)amino)pyrazine-2-carboxylic acid] | excellent tumor growth inhibition rate | < 10 nM | < 100 nM
C[C@H](Oc1c(Nc2ncc(C3CC3)nc2C(=O)O)cccc1C1=CCOCC1)C(F)(F)F [Example 8, (S)-6-cyclopropyl-3-((3-(3,6-dihydro-2H-pyran-4-yl)-2-((1,1,1-trifluoropropan-2-yl)oxy)phenyl)amino)pyrazine-2-carboxylic acid] | excellent tumor growth inhibition rate | < 10 nM | < 100 nM
O=C(O)c1nc(C2CC2)cnc1Nc1cccc(C2=CCOCC2)c1OCC(F)(F)F [Example 2, 6-cyclopropyl-3-((3-(3,6-dihydro-2H-pyran-4-yl)-2-(2,2,2-trifluoroethoxy)phenyl)amino)pyrazine-2-carboxylic acid] | excellent tumor growth inhibition rate | < 10 nM | < 100 nM

— patent US12421217B2, “Pyrazine derivative or salt thereof, and use of same” (FUJIFILM Corporation, priority 2019, dated 2025)
